Where “and” joins values, the source holds several entries; their conditions need not be identical. Identical values can stand only once. Like-named read-outs stand apart in the source and are kept apart here.
Key:
WT EGFR kinase domain = target: T1, WT EGFR kinase domain (Homo sapiens, UniProt P00533); assay: HTRF KinEASE-TK kinase activity assay; type: biochemical
T1 construct: The EGFR kinase domain (residues 696–1022) was cloned into pTriEx; 6xHis (N, cleaved yes); GST (N, cleaved yes); made in house; host or cells: SF9 insect cells, baculovirus

[1] = target: T2, EGFR L858R (LR) kinase domain (Homo sapiens, UniProt P00533, L858R); assay: HTRF KinEASE-TK kinase activity assay; type: biochemical
T2 construct: The EGFR kinase domain (residues 696–1022) was cloned into pTriEx; 6xHis (N, cleaved yes); GST (N, cleaved yes); made in house; host or cells: SF9 insect cells, baculovirus

[2] = target: T3, EGFR L858R/T790M (LRTM) kinase domain (Homo sapiens, UniProt P00533, L858R/T790M); assay: HTRF KinEASE-TK kinase activity assay; type: biochemical; conditions: for linking coefficients: limits estimated from LRTM IC50 values; for Linking coefficient E: LRTM IC50, upper limit; for activity: LRTM, read-out: percent inhibition
T3 construct: The EGFR kinase domain (residues 696–1022) was cloned into pTriEx; 6xHis (N, cleaved yes); GST (N, cleaved yes); made in house; host or cells: SF9 insect cells, baculovirus

[3] = target: T4, EGFR L858R/T790M/C797S (LRTMCS) kinase domain (Homo sapiens, UniProt P00533, C797S/L858R/T790M); assay: HTRF KinEASE-TK kinase activity assay; type: biochemical
T4 construct: The EGFR kinase domain (residues 696–1022) was cloned into pTriEx; 6xHis (N, cleaved yes); GST (N, cleaved yes); made in house; host or cells: SF9 insect cells, baculovirus

[4] = test system: EGFR phosphorylation (pY1068) in H1975 cells; assay: Western blot; type: cell-based, human; conditions: H1975, 6 h
Experimental: H1975, H3255, H3255GR and HCC827 lung adenocarcinoma cells (obtained from Dr. Pasi Jänne in Dana-Farber Cancer Institute, 2022) were cultured in RPMI 1640 media (Corning, 1004-CV) supplemented with 10% FBS (Tissue Culture Biologicals, 35-010-CV) and 1% penicillin-streptomycin (P/S, Corning, 30-002-CI). All cell lines were tested negative for Mycoplasma using Myco-Sniff-Rapid™ Mycoplasma Luciferase Detection Kit Plus PCR Primer Set (MP biomedicals, 0930504-CF) and were passaged and/or used for no longer than 4 weeks for all experiments H1975 and HCC-827 cells were seeded in 6-well plates with 400,000 cells per well and incubated overnight. H3255 and H3255GR cells were seeded in 12-well plates with 200,000 cells per well and were grown to confluency after 48 h. Culture medium was removed, cells washed with PBS, and lysed with lysis buffer containing 5 M NaCl, 1 M TRIS pH 8.0, 10% SDS, 10% Triton X-100 and a tablet of protease and phosphatase inhibitor. Protein lysate concentration was analyzed using Pierce BCA kit (ThermoFisher, 23225). Protein samples (10 µg) were resolved on hand-cast Criterion Tris-HCl protein gels. Primary antibodies used; phospho-EGFR (Tyr1068; #2234, 1:1,000), EGFR (#4267; 1:1,000), phospho-AKT (Ser473; #4060, 1:1,000), AKT (#9272, 1:1,000), phospho-ERK1/2 (Thr202/Tyr204; #4370, 1:1,000), and ERK1/2 (#4695, 1:1,000) antibodies; were purchased from Cell Signaling Technology. Secondary Goat anti-rabbit IgG starbright blue 700 (Biorad, 64484700) and Anti-tubulin hFAB Rhodamine Tubulin (Bio-Rad, 64512248). Western blots were visualized with the ChemiDoc MP imager (Bio-Rad) utilizing the Image Lab Touch Software (version 2.4.0.03). All Western blot images are representatives of at least 3 independent replicate experiments.

[5] = test system: Ba/F3 cells, wildtype EGFR; conditions: Ba/F3 ref 4 Wittlinger and Heppner; read-out: EGFR EC50, wt; cited from earlier work
Ba/F3 cells, L858R EGFR = conditions: Ba/F3 ref 4 Wittlinger and Heppner; read-out: EGFR EC50, LR; cited from earlier work
[6] = test system: Ba/F3 cells, LR/TM/CS EGFR; conditions: Ba/F3 ref 4 Wittlinger and Heppner; cited from earlier work
[7] = enzyme 10 nM, ATP 100 µM, read-out: Biochemical EGFR IC50, WT
[8] = enzyme 0.1 nM, ATP 100 µM, read-out: Biochemical EGFR IC50, LR
[9] = Table S1, ATP 100 µM, read-out: IC50, LRTM
[10] = enzyme 0.02 nM, ATP 100 µM, read-out: Biochemical EGFR IC50, LRTM
[11] = enzyme 0.02 nM, ATP 100 µM, read-out: Biochemical EGFR IC50, LRTMCS

SMILES: CSc1nc(-c2cccc(CN3C(=O)c4ccccc4Nc4ccc(F)cc43)c2)c(-c2ccnc(NC(C)=O)c2)[nH]1 [Compound 1]
- IC50 (WT EGFR kinase domain; [7]): > 10000 nM
- IC50 (WT EGFR kinase domain; read-out: IC50, WT): ≥ 1000 nM
- activity at 3.181 pM ([1]; LR, [Inhibitor] 0.00318089 nM, read-out: percent inhibition): 103%
- activity at 7.783 pM ([1]; LR, [Inhibitor] 0.00778314 nM, read-out: percent inhibition): 94.6%
- activity at 19.04 pM ([1]; LR, [Inhibitor] 0.0190441 nM, read-out: percent inhibition): 99.4%
- activity at 46.6 pM ([1]; LR, [Inhibitor] 0.0465979 nM, read-out: percent inhibition): 97.2%
- activity at 0.000114018 µM ([1]; LR, [Inhibitor] 0.114018 nM, read-out: percent inhibition): 94.5%
- activity at 0.000278983 µM ([1]; LR, [Inhibitor] 0.278983 nM, read-out: percent inhibition): 83%
- activity at 0.000682626 µM ([1]; LR, [Inhibitor] 0.682626 nM, read-out: percent inhibition): 67.9%
- activity at 0.00167028 µM ([1]; LR, [Inhibitor] 1.67028 nM, read-out: percent inhibition): 39.3%
- activity at 0.0040869 µM ([1]; LR, [Inhibitor] 4.0869 nM, read-out: percent inhibition): 19.2%
- activity at 0.01 µM ([1]; LR, [Inhibitor] 10 nM, read-out: percent inhibition): 9.7%
- activity at 1.3 pM ([1]; LR, [Inhibitor] […], read-out: percent inhibition): 102%
- IC50 [1, 8]: 1300 ± 100 nM
- IC50 ([1]; read-out: IC50, LR): ≥ 1000 nM
- IC50 [2, 9]: ≥ 1 µM
- IC50 [2, 10]: > 10 µM
- linking coefficients [2]: > 2e+07 M⁻¹
- activity at 3.181 pM ([3]; LRTMCS, [Inhibitor] 0.00318089 nM, read-out: percent inhibition): 103%
- activity at 7.783 pM ([3]; LRTMCS, [Inhibitor] 0.00778314 nM, read-out: percent inhibition): 94.6%
- activity at 19.04 pM ([3]; LRTMCS, [Inhibitor] 0.0190441 nM, read-out: percent inhibition): 99.4%
- activity at 46.6 pM ([3]; LRTMCS, [Inhibitor] 0.0465979 nM, read-out: percent inhibition): 97.2%
- activity at 0.000114018 µM ([3]; LRTMCS, [Inhibitor] 0.114018 nM, read-out: percent inhibition): 94.5%
- activity at 0.000278983 µM ([3]; LRTMCS, [Inhibitor] 0.278983 nM, read-out: percent inhibition): 83%
- activity at 0.000682626 µM ([3]; LRTMCS, [Inhibitor] 0.682626 nM, read-out: percent inhibition): 67.9%
- activity at 0.00167028 µM ([3]; LRTMCS, [Inhibitor] 1.67028 nM, read-out: percent inhibition): 39.3%
- activity at 0.0040869 µM ([3]; LRTMCS, [Inhibitor] 4.0869 nM, read-out: percent inhibition): 19.2%
- activity at 0.01 µM ([3]; LRTMCS, [Inhibitor] 10 nM, read-out: percent inhibition): 9.7%
- activity at 1.3 pM ([3]; LRTMCS, [Inhibitor] […], read-out: percent inhibition): 102%
- IC50 [3, 11]: > 10000 nM
- IC50 ([3]; read-out: IC50, LRTMCS): ≥ 1000 nM
- suppression of EGFR phosphorylation [4]: limited ability to suppress phosphorylation

SMILES: CCc1nc(-c2cccc(NC(=O)c3cccc4c3NC(=O)c3ccccc3N4)c2)c(-c2ccnc(NC(C)=O)c2)[nH]1 [Compound 3]
- IC50 (WT EGFR kinase domain; [7]): < 10 nM
- activity ([1]; LR, [Inhibitor] 1.3e-5 nM, read-out: percent inhibition): 95.4% and 96.9% and 90.5%
- activity ([1]; LR, [Inhibitor] 3.18e-5 nM, read-out: percent inhibition): 86.7% and 90.8% and 88.7%
- activity ([1]; LR, [Inhibitor] 7.78e-5 nM, read-out: percent inhibition): 65.8% and 67.4% and 61.5%
- activity at 190.4 fM ([1]; LR, [Inhibitor] 0.000190441 nM, read-out: percent inhibition): 34.4%
- activity at 466 fM ([1]; LR, [Inhibitor] 0.000465979 nM, read-out: percent inhibition): 15.1%
- activity at 1.14 pM ([1]; LR, [Inhibitor] 0.00114018 nM, read-out: percent inhibition): 9.97%
- activity at 2.79 pM ([1]; LR, [Inhibitor] 0.00278983 nM, read-out: percent inhibition): 5.05%
- activity at 6.826 pM ([1]; LR, [Inhibitor] 0.00682626 nM, read-out: percent inhibition): 3.24%
- activity at 16.7 pM ([1]; LR, [Inhibitor] 0.0167028 nM, read-out: percent inhibition): 1.45%
- IC50 [1, 8]: 1.2 ± 0.09 nM
- Linking coefficient E ([2]; ATP fragment 5, allosteric fragment 10): < 0.88 M⁻¹
- Linking coefficient E ([2]; ATP fragment 6, allosteric fragment 10): < 0. 51 M-1
- activity ([2]; [Inhibitor] 1.3e-5 nM): 80.3% and 89% and 81.1%
- activity ([2]; [Inhibitor] 3.18e-5 nM): 69.3% and 75.7% and 76.3%
- activity ([2]; [Inhibitor] 7.78e-5 nM): 34.1% and 36.2% and 33.7%
- activity ([2]; [Inhibitor] 0.000190441 nM, 190.4 fM): 16.3% and 13.5%
- activity ([2]; [Inhibitor] 0.000465979 nM, 466 fM): 5.63% and 5.16%
- activity ([2]; [Inhibitor] 0.00114018 nM, 1.14 pM): 4.05% and 3.39%
- activity ([2]; [Inhibitor] 0.00278983 nM, 2.79 pM): 3.12% and 3.28%
- activity ([2]; [Inhibitor] 0.00682626 nM, 6.826 pM): 2.4% and 2.45%
- IC50 ([2]; Table S1, read-out: IC50, LRTM): 5.1e-05 to 6.4e-05 µM and 5.1e-05 to 5.9e-05 µM
- IC50 [2, 10]: 5.1e-05 ± 5e-06 µM
- linking coefficients [2]: 0.5 to 1.0 M⁻¹
- activity ([3]; LRTMCS, [Inhibitor] 1.3e-5 nM, read-out: percent inhibition): 95.4% and 96.9% and 90.5%
- activity ([3]; LRTMCS, [Inhibitor] 3.18e-5 nM, read-out: percent inhibition): 86.7% and 90.8% and 88.7%
- activity ([3]; LRTMCS, [Inhibitor] 7.78e-5 nM, read-out: percent inhibition): 65.8% and 67.4% and 61.5%
- activity at 190.4 fM ([3]; LRTMCS, [Inhibitor] 0.000190441 nM, read-out: percent inhibition): 34.4%
- activity at 466 fM ([3]; LRTMCS, [Inhibitor] 0.000465979 nM, read-out: percent inhibition): 15.1%
- activity at 1.14 pM ([3]; LRTMCS, [Inhibitor] 0.00114018 nM, read-out: percent inhibition): 9.97%
- activity at 2.79 pM ([3]; LRTMCS, [Inhibitor] 0.00278983 nM, read-out: percent inhibition): 5.05%
- activity at 6.826 pM ([3]; LRTMCS, [Inhibitor] 0.00682626 nM, read-out: percent inhibition): 3.24%
- activity at 16.7 pM ([3]; LRTMCS, [Inhibitor] 0.0167028 nM, read-out: percent inhibition): 1.45%
- IC50 [3, 11]: 0.063 ± 0.005 nM
- IC50 ([3]; read-out: IC50, LRTMCS): 0.051 to 0.064 nM
- suppression of EGFR phosphorylation [4]: also effective in H1975 cells, however to a lesser extent than 4

SMILES: CSc1nc(-c2ccc(F)cc2)c(-c2ccnc(NC(C)=O)c2)[nH]1 [Compound 5, reference compound]
- IC50 [2, 9]: 6 to 10 µM and ≥ 6 µM
- IC50 [2, 10]: 5.8 ± 0.3 µM
- IC50 [3, 11]: 6000 ± 500 nM
- IC50 ([3]; read-out: IC50, LRTMCS): 6000 to 10000 nM

SMILES: C=CC(=O)Nc1ccc(OC)c(Nc2cc(-c3[nH]c(SC)nc3-c3ccc(F)cc3)ccn2)c1 [Compound 7]
- EC50 [5]: 20 ± 6 nM
- EC50 (Ba/F3 cells, L858R EGFR): < 1 nM
- EC50 [6]: 1600 ± 200 nM

SMILES: O=C1c2cc(F)ccc2Nc2ccccc2N1Cc1ccccc1 [Compound 9, reference compound]
- IC50 (WT EGFR kinase domain; [7]): > 1000 nM
- IC50 [2, 10]: 0.052 µM
- IC50 [3, 11]: 39 to 59 nM

SMILES: O=C1Nc2c(cccc2C(=O)Nc2ccccc2)Nc2ccccc21 [Compound 10]
- IC50, LRTM ([2]; Table S1, ATP 100 µM): virtually inactive
- IC50 [2, 9]: ≥ 10 µM

SMILES: O=C1Nc2c(cccc2C(=O)Nc2nccs2)Nc2ccccc21 [Compound 11]
- IC50 [2, 9]: ≥ 10 µM

SMILES: COc1ccc2c(c1)C(=O)Nc1c(cccc1C(=O)Nc1nccs1)N2 [Compound 12]
- IC50 [2, 9]: ≥ 10 µM

— publication PMC10879502, “Linking ATP and allosteric sites to achieve superadditive binding with bivalent EGFR kinase inhibitors” (Communications Chemistry, 2024)
